Literature values in paper PMC11238383, “A review on the cultivation, bioactive compounds, health-promoting factors and clinical trials of medicinal mushrooms Taiwanofungus camphoratus, Inonotus obliquus and Tropicoporus linteus” (Fungal Biology and Biotechnology, 2024).
≈ marks a conversion by molar mass, not a printed value.

What was measured:
[1] = test system: Obesity-induced Wistar rats; parameters: method as in Chen et al. [181]; details: ref Chen et al. [181]
[2] = test system: Oxidative stress-induced HepG2 cells; parameters: method as in Kumar et al. [180]; details: pretreatment, after 24 h; ref Kumar et al. [180]
[3] = test system: breast cancer cells; parameters: method as in PMID 25656647; details: ref [71]
[4] = test system: Hepatitis C virus (HCV) protease; parameters: method as in My et al. [190]; details: ref My et al. [190]
[5] = test system: C2C12 cells; parameters: method as in Kuo et al. [177]; details: in vitro; ref Kuo et al. [177]
[6] = test system: Streptozotocin-induced diabetic C57BL/6J mice; parameters: method as in Kuo et al. [177]; details: in vivo; ref Kuo et al. [177]
[7] = test system: Chronic alcohol-induced liver disease in C57BL/6J (B6) mice; parameters: method as in Chang et al. [182]; details: ref Chang et al. [182]
[8] = test system: MCF7, MDA-MB-231, T24 and J82 cells; parameters: method as in Lu et al. [232]; details: ref Lu et al. [232]
[9] = test system: Influenza A H1N1 virus; parameters: method as in Hwang et al. [13]; details: 10 uM; ref Hwang et al. [13]
[10] = test system: LPS-stimulated RAW264.7 cells; parameters: method as in Huang et al. [212], [243]; details: ref Huang et al. [212], [243]
[11] = biological target: H1N1 neuraminidase; details: ref [13]
[12] = ref Lee et al. [226]
[13] = test system: 3CL protease; parameters: method as in Li et al. [35], [38]; details: ref Li et al. [35], [38]
[14] = test system: aldose reductase; parameters: method as in Lee et al. [136]; details: ref Lee et al. [136]
[15] = test system: Severe acute respiratory syndrome coronavirus 2 (SARS-CoV-2) virus-infected HepG2 cells; parameters: method as in Li et al. [35], [38]; details: ref Li et al. [35], [38]
[16] = test system: Oleic and palmitic acids (O/P) lipid accumulation-induced HepG2 cells; parameters: method as in Chiu et al. [138]; details: ref Chiu et al. [138]
[17] = test system: Streptozotocin-induced diabetic C57BL/6J mice; parameters: method as in Lin et al. [176]; details: ref Lin et al. [176]
[18] = test system: High-fat diet-induced C57BL/6J mice; parameters: method as in Lin et al. [175]; details: ref Lin et al. [175]
[19] = test system: Carbon tetrachloride (CCl4) liver damage induced-Sprague Dawley rats; parameters: method as in Parfenov et al. [216]; details: I. obliquus; ref Parfenov et al. [216]
[20] = test system: Chang liver cells; parameters: method as in Parfenov et al. [216]; details: I. obliquus; 10^−5 and 10^−3 g/L; ref Parfenov et al. [216]
[21] = test system: Streptozotocin-induced diabetic C57BL/6J mice; parameters: method as in Kuo et al. [178]; details: ref Kuo et al. [178]
[22] = test system: C57BL/6J mice; details: 40 mg/kg/day versus Metformin 300 mg/kg/day; ref [174]
[23] = test system: C2C12 cells; parameters: method as in Kuo et al. [174]; details: ref Kuo et al. [174]
[24] = test system: H1264; parameters: method as in Baek et al. [203]; details: ref Baek et al. [203]
[25] = test system: Calu-6; parameters: method as in Baek et al. [203]; details: ref Baek et al. [203]
[26] = test system: H1299; parameters: method as in Baek et al. [203]; details: ref Baek et al. [203]
[27] = test system: High-fat diet-induced C57BL/6J mice; parameters: method as in Kuo et al. [178]; details: ref Kuo et al. [178]
[28] = test system: Ultraviolet B-irradiated BALB/cAnN.Cg-Foxn1nu/CrlNarl hairless mice; parameters: method as in Kuo et al. [184]; details: topical 25 and 100 μM; ref Kuo et al. [184]

Question: Which hepatoprotective effect [1] does the source give for `COC1=C(OC)[C@H](O)[C@H](C/C=C(\C)CC/C=C(\C)CCC=C(C)C)[C@@H](C)C1=O` [Antroquinonol, antroquinonol] here?
Answer: The hepatoprotective effect was “Exerts hepatoprotective effects by inhibiting hepatic lipid accumulation”.

Question: What about the “rise in ALT and AST caused by ethanol” value [2] of the same molecule?
Answer: The value was “Antroquinonol pretreatment considerably and dose-dependently decreased the rise in ALT and AST caused by ethanol after 24 h in HepG2 cells”.

Question: What about the migration and invasion [3] of the same molecule?
Answer: Its migration and invasion is “inhibit the migration and invasion of breast cancer cells”.

Question: For `CC(C)=CCOc1ccc(C2=C(CC(C)C)C(=O)OC2=O)cc1` [Antrodin A], which “half-maximal inhibitory concentration (IC50)” value [4] is on record?
Answer: The value was “Antrodins A to E, except antrodin B, exhibited potent inhibitory effects against the HCV protease, with Antrodin A having the highest potency with a half-maximal inhibitory concentration (IC50) value of 0.9 µg/mL”.

Question: With `C=C(CC[C@@H](C(=O)O)[C@H]1CC[C@@]2(C)C3=CC[C@H]4C(C)(C)[C@@H](O)CC[C@]4(C)C3=CC[C@]12C)C(C)C` [Dehydroeburicoic acid] as the molecule, how does the GLUT4 expression [5] read?
Answer: The GLUT4 expression was “Higher expression of GLUT4”.

Question: What about the “decrease in blood glucose level” value [6] of the same molecule?
Answer: Its value is 43.6–46.5%.

Question: For `CC(C)[C@@H](C)/C=C/[C@@H](C)[C@H]1CC[C@H]2C3=CCC4C[C@@H](O)CC[C@]4(C)C3=CC[C@]12C` (some centres unmarked) [Antrosterol], which hepatoprotective findings [7] is on record?
Answer: The hepatoprotective findings was “Reduction in serum/hepatic lipids, rise in output of fecal lipid/bile-acid output, amplified hepatic antioxidant activities, reduced serum alcohol level, decrease liver inflammation, fibrosis, serum AST/ALT and TNF-α/IL-1β”.

Question: With `CC(=O)/C=C(O)/C=C/c1ccc(O)c(O)c1` [Hispolon, hispolon] as the molecule, how does the “suppression of cancer cells” value [8] read?
Answer: Its value is “Suppressed p53 mutant (MDA-MB-231, T24, and J82) and wild-type (MCF7) cells regardless of p53 status Apoptosis characterized by chromatin condensation and poly (ADP-ribose) polymerase (PARP) increase”.

Question: For `CC1=CC(=O)/C(=C/c2ccc(O)c(O)c2)O1` [Inotilone, inotilone], which visible cytopathic effects [9] is on record?
Answer: Its visible cytopathic effects is 10 uM of both inhibited the formation of visible cytopathic effects, with IC50 values lower than Oseltamivir.

Question: What about the “NO, iNOS, NF-κB, MMP-9” value [10] of the same molecule?
Answer: The value was “Inhibit NO production, iNOS, NF-κB, and MMP-9 expressions, and LPS-induced ERK, JNK, and p38 phosphorylation”.

Question: What about the IC50 [11] of the same molecule?
Answer: The IC50 was 61 µM.

Question: And the neuraminidase activity [11]?
Answer: Its neuraminidase activity is “inhibit neuraminidase activity”.

Question: What about the antioxidant activity [12] of the same molecule?
Answer: Its antioxidant activity is “Potent antioxidant activity, with higher antioxidant activity than BHA and Trolox in FRAP assay”.

Question: What does the source list for `O=c1cc(O)cc([C@H]2c3c(cc(/C=C/c4ccc(O)c(O)c4)oc3=O)O[C@@H]2c2ccc(O)c(O)c2)o1` [Hypholomine B, hypholomine B]?
Answer: 3CL protease [13]: Inhibition of 3CL protease; aldose reductase inhibition [14]: capable of inhibiting aldose reductase; ACE2 gene expression [15]: Reduced the expression of angiotensin-converting enzyme 2 (ACE2) gene; lipid accumulation [16]: Significant reduction in lipid accumulation

Question: Which “insulin and HbA1c” value [17] does the source give for `C=C(CC[C@@H](C(=O)O)[C@H]1C[C@H](O)[C@@]2(C)C3=C(CC[C@]12C)[C@@]1(C)CC[C@H](O)C(C)(C)[C@@H]1CC3)C(C)C` [Sulphurenic acid] here?
Answer: Its value is “Rise of insulin levels and reduction in the concentration of glycated hemoglobin (HbA1c)”.

Question: And the “PPAR-α expression in the liver” value [18]?
Answer: Its value is “Increased expression of PPAR-α in the liver which facilitated fatty acid oxidation and the reduction of lipid levels”.

Question: Which results are given for Melanin?
Answer: liver damage findings [19]: Decrease in fat buildup, steatosis, necrosis; increase in viability of liver cells intoxicated with d-galactosamine [20]: 2–2.5 times

Question: Which results are given for `C=C(CC[C@@H](C)[C@H]1CC[C@H]2C3=C(C(=O)C[C@]12C)[C@@]1(C)CC[C@@H](O)[C@](C)(O)[C@@H]1C[C@@H]3O)C(C)C(=O)O` (some centres unmarked) [Antcin K]?
Answer: FAS, CPT-1a, PPARα expression [21]: Fatty acid synthase (FAS) expression levels declined while hepatic expression levels of carnitine palmitoyl transferase 1a (CPT-1a) and peroxisome proliferator-activated receptor α (PPARα) rose; antihyperglycemic effect [22]: comparable to Metformin; GLUT4 and phospho-Akt expression [23]: Enhance membrane glucose transporter 4 (GLUT4) and phosphor-Akt expressions

Question: Which IC50 [24] does the source give for `CC(C)=CCC[C@@H](C=O)[C@H]1CC[C@@]2(C)C3=C(CC[C@]12C)[C@@]1(C)CC[C@H](O)C(C)(C)[C@@H]1CC3` [3β-hydroxylanosta-8,24-dien-21-al] here?
Answer: Its IC50 is 90.9 µg/mL (≈ 206 µM).

Question: And the IC50 [25]?
Answer: Its IC50 is 75.1 µg/mL (≈ 170 µM).

Question: What about the IC50 [26] of the same molecule?
Answer: The IC50 was 128.0 µg/mL (≈ 290 µM).

Question: With `CC(C)[C@@H](C)/C=C/[C@@H](C)[C@H]1CC[C@H]2C3=CCC4C[C@@H](O)CC[C@]4(C)C3=CC[C@]12C` (stereo partly drawn) [Ergostatrien-3β-ol] as the molecule, how does the “visceral adipocyte size, hepatic ballooning” value [27] read?
Answer: The value was “Reduced visceral adipocyte size and induced hepatic ballooning degeneration”.

Question: What about the “MMP-1, IL-6, iNOS, NF-κB in skin” value [28] of the same molecule?
Answer: Its value is “Significant inhibition of metalloproteinase-1 (MMP-1), IL-6, iNOS and NF-κB in skin”.
